Measurements reported in ChEMBL document CHEMBL1201862, “PubChem BioAssay data set” (2004).
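Step 1: Grow cells in 96-well plates. Step 2: Expose to compound for 48 hours at 5 concentrations. Step 3: Interpolate endpoints linearly; if unreached, use highest concentration. Here, GI50 denotes the concentration required for 50% inhibition of growth.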 The source made the active and inactive calls. Cut-off read from the data, not from the text of the source: active = GI50 up to about 1.1 µM and inactive = higher.

Key:
Experiment in all cases: NCI tumour cell line growth inhibition, 48 h
A498 = tested on: A498
NCI-H460 = tested on: NCI-H460
NCI/ADR-RES = tested on: NCI/ADR-RES
HL-60 = tested on: HL-60
SK-MEL-28 = tested on: SK-MEL-28
PC-3 = tested on: PC-3
Hs-578T = tested on: Hs-578T
CCRF-CEM = tested on: CCRF-CEM
IGROV-1 = tested on: IGROV-1
HCT-15 = tested on: HCT-15
KM12 = tested on: KM12
HOP-62 = tested on: HOP-62
786-0 = tested on: 786-0
OVCAR-8 = tested on: OVCAR-8
COLO 205 = tested on: COLO 205
SK-MEL-2 = tested on: SK-MEL-2
DU-145 = tested on: DU-145
HCC 2998 = tested on: HCC 2998
MDA-MB-435 = tested on: MDA-MB-435

Measured: GI50

O=C(O)CCc1nc2c(n1-c1ccccc1)C(=O)c1ccccc1C2=O
inactive: A498 > 100 µM | NCI-H460 > 100 µM | NCI/ADR-RES > 100 µM | HL-60 > 100 µM | SK-MEL-28 > 100 µM | PC-3 > 100 µM | Hs-578T > 100 µM | CCRF-CEM > 100 µM | IGROV-1 > 100 µM | KM12 > 100 µM | HOP-62 > 100 µM | 786-0 > 100 µM | OVCAR-8 > 100 µM | COLO 205 > 100 µM | SK-MEL-2 95.9 µM | DU-145 > 100 µM | HCC 2998 > 100 µM | MDA-MB-435 87.5 µM
> 100 µM: HCT-15

Cc1nc2nc3c(ncn3COCCO)c(O)n2c1C(c1ccccc1)(c1ccccc1)c1ccccc1
1.6 µM: HCT-15
inactive: A498 18.3 µM | NCI-H460 15.2 µM | NCI/ADR-RES 1.55 µM | HL-60 14.1 µM | SK-MEL-28 20 µM | PC-3 12.9 µM | Hs-578T 21.2 µM | CCRF-CEM 13.2 µM | IGROV-1 14 µM | KM12 12.2 µM | HOP-62 18.6 µM | 786-0 17.1 µM | OVCAR-8 14 µM | COLO 205 14.6 µM | SK-MEL-2 14.5 µM | DU-145 12.5 µM | HCC 2998 13.6 µM | MDA-MB-435 10.9 µM

CN(C)c1ccc(/C=C2\C[C@H]3[C@@H]4CCc5cc(OCCN6CCCC6)ccc5[C@H]4CC[C@]3(C)[C@H]2O)cc1
5.3 µM: HCT-15
inactive: A498 17.8 µM | NCI-H460 8.07 µM | NCI/ADR-RES 19.3 µM | HL-60 18.9 µM | SK-MEL-28 5.11 µM | PC-3 13.8 µM | Hs-578T 21.8 µM | CCRF-CEM 2.46 µM | IGROV-1 16.1 µM | KM12 5.71 µM | HOP-62 15.1 µM | 786-0 2.13 µM | OVCAR-8 6.32 µM | COLO 205 13.5 µM | SK-MEL-2 19.3 µM | DU-145 13.1 µM | HCC 2998 5.7 µM | MDA-MB-435 8.43 µM

Fc1cc(C2=Nn3c(CNc4ccc(Cl)cc4)nnc3S/C2=C\c2ccc(-c3ccc(Cl)cc3)o2)c(Cl)cc1Cl
inactive: A498 17.5 µM | NCI-H460 65.3 µM | NCI/ADR-RES 6.53 µM | HL-60 > 100 µM | SK-MEL-28 67 µM | PC-3 14.9 µM | Hs-578T 46.7 µM | CCRF-CEM 67.1 µM | IGROV-1 17.7 µM | KM12 > 100 µM | HOP-62 21.8 µM | 786-0 32.3 µM | OVCAR-8 51.1 µM | COLO 205 14.3 µM | SK-MEL-2 22.6 µM | DU-145 65 µM | HCC 2998 57.8 µM | MDA-MB-435 68.5 µM
> 100 µM: HCT-15

CSC[C@H](NC(=O)COc1cccc2cnccc12)C(=O)NC(Cc1ccccc1)C(O)C(=O)N1CSC[C@H]1C(=O)NC(C)(C)C (stereo partly specified)
inactive: A498 68.2 µM | NCI-H460 38.9 µM | NCI/ADR-RES > 100 µM | HL-60 33.8 µM | SK-MEL-28 78.2 µM | PC-3 24 µM | Hs-578T 89.3 µM | CCRF-CEM 26.5 µM | IGROV-1 > 100 µM | KM12 53.2 µM | HOP-62 > 100 µM | 786-0 44.5 µM | OVCAR-8 78.3 µM | COLO 205 27.5 µM | SK-MEL-2 > 100 µM | DU-145 42.8 µM | HCC 2998 > 100 µM | MDA-MB-435 87.5 µM
> 100 µM: HCT-15

O=C(O)C(=Cc1ccc(-c2ccccc2)cc1)C(=O)O
12.2 µM: HCT-15
inactive: A498 19.3 µM | NCI-H460 14.9 µM | NCI/ADR-RES 13.2 µM | HL-60 7.53 µM | SK-MEL-28 15.8 µM | PC-3 9.08 µM | Hs-578T 24.4 µM | CCRF-CEM 4.06 µM | IGROV-1 23.3 µM | KM12 15.6 µM | HOP-62 6.75 µM | 786-0 14.8 µM | OVCAR-8 16.6 µM | COLO 205 11.2 µM | SK-MEL-2 6.95 µM | DU-145 3.66 µM | HCC 2998 8.73 µM | MDA-MB-435 9.16 µM

COc1cccc(/C=C/c2ccnc3ccccc23)c1OC
> 10 µM: HCT-15
inactive: A498 > 10 µM | NCI-H460 > 10 µM | NCI/ADR-RES 2.67 µM | HL-60 > 10 µM | SK-MEL-28 > 10 µM | PC-3 > 10 µM | Hs-578T > 10 µM | CCRF-CEM 4.6 µM | IGROV-1 > 10 µM | KM12 > 10 µM | HOP-62 > 10 µM | 786-0 > 10 µM | OVCAR-8 > 10 µM | COLO 205 > 10 µM | SK-MEL-2 > 10 µM | DU-145 > 10 µM | HCC 2998 > 10 µM | MDA-MB-435 2.86 µM

CC(C)(C)c1ccc(C(O)(c2ccc(C(C)(C)C)cc2)c2ccc(C(C)(C)C)cc2)cc1
> 100 µM: HCT-15
inactive: A498 > 100 µM | NCI-H460 > 100 µM | NCI/ADR-RES > 100 µM | HL-60 > 100 µM | SK-MEL-28 > 100 µM | PC-3 > 100 µM | Hs-578T 70.5 µM | CCRF-CEM > 100 µM | IGROV-1 > 100 µM | KM12 > 100 µM | HOP-62 > 100 µM | 786-0 > 100 µM | OVCAR-8 > 100 µM | COLO 205 > 100 µM | SK-MEL-2 > 100 µM | DU-145 > 100 µM | HCC 2998 > 100 µM | MDA-MB-435 > 100 µM

CN1CCN(CCCCNc2cc3c4ccccc4c(NCCCCN4CCN(C)CC4)cc3c3ccccc23)CC1
active: CCRF-CEM 0.703 µM | MDA-MB-435 0.184 µM
1.34 µM: HCT-15
inactive: A498 12 µM | NCI-H460 1.53 µM | NCI/ADR-RES 2.47 µM | HL-60 4.03 µM | SK-MEL-28 7.67 µM | PC-3 3.31 µM | Hs-578T 2.38 µM | IGROV-1 1.93 µM | KM12 1.55 µM | HOP-62 3.59 µM | 786-0 1.63 µM | OVCAR-8 1.88 µM | COLO 205 2.36 µM | SK-MEL-2 5.05 µM | DU-145 1.67 µM | HCC 2998 1.81 µM

CC(=O)O[C@H]1CC[C@@]2(C)C(=CC[C@H]3[C@@H]4C[C@H](N5CCOCC5)[C@H](OC(C)=O)[C@@]4(C)CC[C@@H]32)C1
inactive: A498 > 100 µM | NCI-H460 > 100 µM | NCI/ADR-RES > 100 µM | HL-60 54.2 µM | SK-MEL-28 > 100 µM | PC-3 > 100 µM | Hs-578T > 100 µM | CCRF-CEM > 100 µM | IGROV-1 > 100 µM | KM12 > 100 µM | HOP-62 > 100 µM | 786-0 > 100 µM | OVCAR-8 > 100 µM | COLO 205 > 100 µM | SK-MEL-2 > 100 µM | DU-145 > 100 µM | HCC 2998 > 100 µM | MDA-MB-435 > 100 µM
> 100 µM: HCT-15

CC(C)OC(=O)c1ccc(NCC2=CC(=O)C=CC2=O)cc1
inactive: A498 27.2 µM | NCI-H460 36.3 µM | NCI/ADR-RES 13.5 µM | HL-60 2.2 µM | SK-MEL-28 18.3 µM | PC-3 13.1 µM | Hs-578T 18.3 µM | CCRF-CEM 2.21 µM | IGROV-1 13.5 µM | KM12 16.6 µM | HOP-62 > 95.5 µM | 786-0 13 µM | OVCAR-8 15.3 µM | COLO 205 3.8 µM | SK-MEL-2 17 µM | DU-145 16.6 µM | HCC 2998 21.4 µM | MDA-MB-435 13.6 µM
12.7 µM: HCT-15

Oc1c(C(O)(c2ccccc2)c2ccc3ccccc3c2O)ccc2ccccc12
inactive: A498 16.1 µM | NCI-H460 8.91 µM | NCI/ADR-RES 13.2 µM | HL-60 3.52 µM | SK-MEL-28 14.7 µM | PC-3 8.26 µM | Hs-578T 7.03 µM | IGROV-1 7.36 µM | KM12 9.38 µM | HOP-62 15 µM | 786-0 20 µM | OVCAR-8 11.3 µM | COLO 205 17.2 µM | SK-MEL-2 12.4 µM | DU-145 15.6 µM | HCC 2998 6.87 µM | MDA-MB-435 14.1 µM
active: CCRF-CEM 0.597 µM
8.77 µM: HCT-15

CC(C)C(C(=O)O)N1C(=O)c2ccccc2C1=O (stereo unspecified)
active: SK-MEL-2 0.18 µM
inactive: A498 > 100 µM | NCI-H460 > 100 µM | NCI/ADR-RES > 100 µM | HL-60 > 100 µM | SK-MEL-28 > 100 µM | PC-3 > 100 µM | Hs-578T > 100 µM | CCRF-CEM > 100 µM | IGROV-1 > 100 µM | KM12 > 100 µM | HOP-62 > 100 µM | 786-0 > 100 µM | OVCAR-8 > 100 µM | COLO 205 > 100 µM | DU-145 > 100 µM | HCC 2998 > 100 µM | MDA-MB-435 > 100 µM
> 100 µM: HCT-15

O=C1CSC(c2ccccc2[N+](=O)[O-])N1c1ccc(-n2c(-c3ccccc3)nc3ccccc3c2=O)cc1 (stereo unspecified)
inactive: A498 38.4 µM | NCI-H460 31.5 µM | NCI/ADR-RES > 100 µM | HL-60 > 100 µM | SK-MEL-28 > 100 µM | PC-3 35.7 µM | Hs-578T 20.8 µM | CCRF-CEM 41.1 µM | IGROV-1 46.1 µM | KM12 48.5 µM | HOP-62 21.3 µM | 786-0 31.4 µM | OVCAR-8 40.4 µM | COLO 205 99.1 µM | SK-MEL-2 55.8 µM | DU-145 > 100 µM | HCC 2998 46.5 µM | MDA-MB-435 > 100 µM
42.3 µM: HCT-15
